Measured values from patent EP0496162A2, “Peptide inhibitors of RAS-GAP interaction” (MERCK & CO. INC., priority 1990, dated 1992).
Non-standard residues stand in square brackets, D forms with d. Residues, ends and D or L forms follow the SMILES beside them. No end group written: not given here.

How the values were obtained:
[1] = format: physicochemical
Experimental: (§1) Ras peptides were dissolved in either 100% dimethyl formamide (DMF, American Burdick and Jackson) or 100% dimethyl sulfoxide (DMSO, Fluka UV-spectroscopy grade) at a calculated peptide concentration of 1-4 mM. Following 1 minute in a Sonicor SC-200 bath sonicator at room temperature, the peptide solutions were vortexed, and then centrifuged for 5 minutes at room temperature in an Eppendorf microfuge to remove any undissolved material. 20 µL of the cleared peptide solutions were then added to 80 µL of Buffer D in a dilution series covering a range of peptide concentrations from 0.02 µM up to the maximum solubility limit for each peptide. In each dilution, the solvent concentration was maintained at 20%. These peptides solutions were then centrifuged for 5 minutes at room temperature at 10,000 x g, and the cleared supernatants were divided into 2 parts. One part of each cleared peptide dilution was used in a GAP competition assay: 40 µL was added to a 5 µL solution containing 0.1 mg/mL BSA plus 240 fmol Ha-ras p21-[γ-³²P]GTP. Reactions were initiated upon addition of 5 µL of diluted GAP (10 fmol), and analyzed as described above.
The other portion of the cleared peptide solution was measured spectrophotometrically to determine solubility and concentration of the peptides. Extinction coefficients were determined by measuring the absorbance at 277 nm of 2 peptides whose exact concentrations were quantitated by amino acid analysis. The extinction coefficients for peptide Ras 17-37 dissolved in buffer D/20% DMF or peptide Ras 91-103 (SEQ ID NO:14)dissolved in water/20% DMSO, were 2580 cm⁻¹M⁻¹ and 2230 cm⁻¹ M⁻¹, respectively. These values were used to determine the exact concentration for each peptide used at each point in the competition assay. In addition, peptide solubility was confirmed by comparing the light scattering at 600 nm for each peptide solution measured before and after centrifugation. Only concentrations reflecting 100% solubility were used in the dose response curves, and the maximum concentration used for each peptide competitor indicates the limit of solubility for that peptide.

Ras-GAP interaction = target: T1, Ras-GAP interaction (Bos taurus, UniProt P09851); experiment: Ras-GAP interaction inhibition assay (GAP-stimulated Ras GTPase, charcoal adsorption); format: biochemical, bovine; conditions: concentration of peptide required to reduce GAP stimulated Ras-GTP hydrolysis by 50%; 10 fmol GAP, 240 fmol Ha ras p21-GTP, 4 minutes at 24°C
T1 construct: made in house; host or cells: GAP: E. coli JM109 (plasmid pYO); Ha-Ras: E. coli RRllaci^q (plasmid pRas[Gly12 Ala59])
T1 sequence (P09851 1-1044): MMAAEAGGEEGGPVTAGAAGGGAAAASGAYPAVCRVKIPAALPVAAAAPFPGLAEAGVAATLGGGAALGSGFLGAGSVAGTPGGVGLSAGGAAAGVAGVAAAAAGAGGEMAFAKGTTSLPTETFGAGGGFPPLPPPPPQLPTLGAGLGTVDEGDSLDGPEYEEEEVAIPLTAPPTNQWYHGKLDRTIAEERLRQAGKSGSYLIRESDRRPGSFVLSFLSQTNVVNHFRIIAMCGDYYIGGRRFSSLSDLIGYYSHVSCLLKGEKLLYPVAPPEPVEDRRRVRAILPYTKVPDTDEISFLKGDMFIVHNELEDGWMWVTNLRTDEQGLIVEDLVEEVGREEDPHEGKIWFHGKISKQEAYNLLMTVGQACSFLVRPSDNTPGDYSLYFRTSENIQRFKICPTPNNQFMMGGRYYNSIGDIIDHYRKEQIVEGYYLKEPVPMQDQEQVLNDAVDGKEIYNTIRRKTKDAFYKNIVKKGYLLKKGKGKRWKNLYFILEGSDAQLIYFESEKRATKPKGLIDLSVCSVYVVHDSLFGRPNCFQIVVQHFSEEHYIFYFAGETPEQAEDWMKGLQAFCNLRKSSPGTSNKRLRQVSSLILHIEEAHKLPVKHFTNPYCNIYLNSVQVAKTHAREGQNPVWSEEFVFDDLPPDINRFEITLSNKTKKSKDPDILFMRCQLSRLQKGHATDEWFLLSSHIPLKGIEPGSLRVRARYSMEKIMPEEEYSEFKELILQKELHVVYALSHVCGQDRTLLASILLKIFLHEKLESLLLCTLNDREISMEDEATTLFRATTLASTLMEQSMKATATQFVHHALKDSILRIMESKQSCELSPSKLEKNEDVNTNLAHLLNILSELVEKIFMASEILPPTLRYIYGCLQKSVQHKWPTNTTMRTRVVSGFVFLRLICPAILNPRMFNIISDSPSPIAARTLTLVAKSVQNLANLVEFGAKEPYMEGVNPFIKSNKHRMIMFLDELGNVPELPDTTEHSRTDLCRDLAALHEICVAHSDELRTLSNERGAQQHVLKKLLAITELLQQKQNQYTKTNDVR
Experimental: The activity of the synthetic peptides of the present invention, as inhibitors of the interaction of ras with GAP was determined in an assay which measures GAP dependent, Ras GTPase activity. Bovine GAP was either purified from fresh bovine brains or recombinantly produced in E. coli. It is understood that the methods of the present invention may utilize either the recombinant full length GAP or the bovine brain derived GAP. In addition, GAP from other species, such as human and mouse, may be substituted for bovine GAP since they share about 95% amino acid homology. Truncated recombinant forms of GAP are also suitable for use in the Ras-GAP interaction assay [Marshall, M.S., et al., (1989), EMBO J., 8, pp1105-1110]. However, for the screening of synthetic peptides for their ability to block the Ras-GAP interaction, the recombinant, full length GAP is preferred.
The Ras protein utilized in the Ras-GAP GTPase assay of the present invention is Harvey ras (Ha-ras). It is understood that other forms of Ras protein are suitable for use in the present invention. Other suitable forms of Ras protein include, but are not limited to, Kirsten Ras, yeast S. cerevisiae RAS, and N-Ras. Furthermore, it is readily apparent to those skilled in the art that any form of Ras protein which is capable of interacting with GAP is suitable for use in the Ras-GAP GTPase assay.
Ras GTPase activity was measured by the charcoal adsorption procedure. Each 50 µL reaction contained 10 fmol purified GAP, 240 fmol Ha ras p21-[γ ³²P] GTP and 1 mg/mL BSA in buffer D. Varying amounts of the competing peptides were added as indicated. Prewarmed reactions (24°C) were initiated by the addition of GAP, then incubated for 4 minutes at 24°C. The reactions were terminated by the addition of 5 volumes of ice cold 5% activated charcoal (Sigma: HCl washed) in 50 mM NaH₂PO₄. GTPase activity was quantitated by measuring the free ³²P-orthophosphate in the cleared supernatant after centrifugation of the charcoal mix. GAP-stimulated Ras GTPase activity in the absence of competitors was 40-60 fmol Ras-GTP hydrolyzed; the 100% control value. In the absence of GAP, GTP hydrolysis was not detectable during the incubation period of the assay. Inhibitors of this assay block GAP-stimulated Ras GTPase without impairing intrinsic Ras GTPase, assayed in the absence of GAP following incubation at 24°C for one hour.
as §1

[2] = target: T2, S. cerevisiae adenylyl cyclase (Ras Dependent, strain FlD reconstituted with purified Ras) (Saccharomyces cerevisiae, UniProt P08678); experiment: Yeast adenylyl cyclase assay, reconstitution of FlD membranes with purified Ras protein; format: biochemical; conditions: part B, FlD membranes with 5 µM purified Ras protein, peptide 10 µM
T2 construct: Since these membranes contain adenylyl cyclase, but are lacking Ras protein; endogenous in cells; host or cells: membranes of S. cerevisiae strain FlD
Source text: Another Ras-dependent enzymatic assay was used to extend the observed ability of the peptides of the present invention to inhibit Ras function. This system, yeast adenylyl cyclase assay, measures the Ras-dependent conversion of ATP into cyclic AMP (cAMP). […] Furthermore, in S. cerevisiae, regulation of cAMP metabolism appears to be a major function of Ras. This assay system was used to extend the observed Ras inhibitory activity of the peptides of the present invention, to a Ras function which is GAP-unrelated. S. cerevisiae strain FlD lacks functional Ras proteins, however FlD cells have functional adenylyl cyclase in their cell membrane. […] Similarly, a recombinant S. cerevisiae strain MY1186, lacks yeast Ras proteins but expresses mammalian Ras protein which functions with adenylyl cyclase to regulate cAMP metabolisim in the yeast cells. […] In contrast, S. cerevisiae strain JC377-10B contains a mutant form of adenylyl cyclase which constitutively converts ATP into cAMP with or without Ras.
Ras peptides were tested at the indicated concentrations for inhibition of S. cerevisiae adenylyl cyclase activity. […] Ras-independent activity was assayed with membranes from strain JC377-10B (ras-minus, constitutively active adenylyl cyclase).
Yeast strain FlD, MY1186 and JC377-10B, were grown in YEHD medium at 30°C. Membrane fractions were prepared from cultures grown to an A₆₆₀ of 0.5 to 1.0 by glusulase digestion [Casperson, G.F. et al., (1983), J. Biol. Chem., 258, pp. 7911-7914], Dounce homogenization of the spheroplasts in buffer containing 50 mM sodium MES [2(N-morpholino) ethanesulfonic acid] […] Adenylyl cyclase assays (100-µL reaction volume) measured the conversion of [α-³²P]ATP to [³²P]cAMP at 30°C, using 50 µg to 100 µg of membrane protein in assays using membranes from yeast strains MY1186 and JC377-10B.. […] Since these membranes contain adenylyl cyclase, but are lacking Ras protein, stimulation of adenylyl cyclase activity may be measured following reconstitution with purified Ras complexed with GTP. […]

T2 sequence (P08678 whole entry): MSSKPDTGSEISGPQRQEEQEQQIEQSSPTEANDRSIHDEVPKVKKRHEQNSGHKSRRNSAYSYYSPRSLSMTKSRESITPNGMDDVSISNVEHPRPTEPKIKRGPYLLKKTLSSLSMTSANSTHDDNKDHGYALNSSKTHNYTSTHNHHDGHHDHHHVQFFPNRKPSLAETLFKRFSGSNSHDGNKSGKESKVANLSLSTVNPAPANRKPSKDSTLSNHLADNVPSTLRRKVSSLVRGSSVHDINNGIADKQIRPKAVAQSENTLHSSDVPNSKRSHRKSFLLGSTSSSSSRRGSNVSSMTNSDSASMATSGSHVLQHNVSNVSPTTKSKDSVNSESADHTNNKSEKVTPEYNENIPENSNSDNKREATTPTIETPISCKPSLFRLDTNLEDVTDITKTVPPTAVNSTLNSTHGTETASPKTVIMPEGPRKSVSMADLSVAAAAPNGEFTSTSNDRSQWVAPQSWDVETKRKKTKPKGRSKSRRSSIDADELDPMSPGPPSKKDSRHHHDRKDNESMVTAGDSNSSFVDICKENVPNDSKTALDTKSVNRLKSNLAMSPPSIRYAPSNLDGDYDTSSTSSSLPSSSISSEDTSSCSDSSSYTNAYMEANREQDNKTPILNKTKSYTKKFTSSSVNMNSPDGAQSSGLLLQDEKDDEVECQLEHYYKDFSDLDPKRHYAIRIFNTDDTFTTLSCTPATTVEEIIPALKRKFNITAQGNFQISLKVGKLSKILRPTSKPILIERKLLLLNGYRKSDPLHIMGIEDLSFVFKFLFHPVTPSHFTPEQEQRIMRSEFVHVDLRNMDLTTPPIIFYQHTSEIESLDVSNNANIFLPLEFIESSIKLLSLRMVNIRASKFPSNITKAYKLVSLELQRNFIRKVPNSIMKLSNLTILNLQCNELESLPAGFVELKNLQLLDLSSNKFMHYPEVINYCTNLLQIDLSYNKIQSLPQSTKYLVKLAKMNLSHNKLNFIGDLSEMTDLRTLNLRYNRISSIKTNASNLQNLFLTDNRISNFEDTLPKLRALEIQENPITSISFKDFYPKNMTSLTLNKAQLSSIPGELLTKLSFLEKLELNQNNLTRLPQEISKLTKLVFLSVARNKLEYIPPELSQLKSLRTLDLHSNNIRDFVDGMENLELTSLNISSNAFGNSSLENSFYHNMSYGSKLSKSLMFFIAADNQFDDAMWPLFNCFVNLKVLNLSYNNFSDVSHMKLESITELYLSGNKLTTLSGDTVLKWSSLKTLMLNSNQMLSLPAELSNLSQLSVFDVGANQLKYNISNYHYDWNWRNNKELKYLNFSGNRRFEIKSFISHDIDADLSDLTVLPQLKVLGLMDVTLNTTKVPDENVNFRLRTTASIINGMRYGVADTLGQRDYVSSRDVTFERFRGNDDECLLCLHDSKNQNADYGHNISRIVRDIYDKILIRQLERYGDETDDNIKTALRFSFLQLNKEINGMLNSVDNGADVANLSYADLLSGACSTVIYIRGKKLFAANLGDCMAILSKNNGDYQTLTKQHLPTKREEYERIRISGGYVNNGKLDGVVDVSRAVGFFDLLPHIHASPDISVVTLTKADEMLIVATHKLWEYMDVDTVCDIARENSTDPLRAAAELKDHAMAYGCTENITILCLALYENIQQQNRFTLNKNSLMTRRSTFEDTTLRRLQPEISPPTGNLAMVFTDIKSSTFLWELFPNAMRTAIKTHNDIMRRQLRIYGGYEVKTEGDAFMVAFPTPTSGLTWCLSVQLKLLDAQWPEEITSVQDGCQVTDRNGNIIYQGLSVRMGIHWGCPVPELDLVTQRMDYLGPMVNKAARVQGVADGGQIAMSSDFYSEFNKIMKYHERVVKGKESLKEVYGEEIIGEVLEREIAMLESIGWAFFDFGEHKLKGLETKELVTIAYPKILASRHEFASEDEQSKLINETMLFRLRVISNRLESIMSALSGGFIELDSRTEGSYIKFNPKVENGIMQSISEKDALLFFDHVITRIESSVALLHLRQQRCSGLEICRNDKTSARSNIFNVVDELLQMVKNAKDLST

Compound | Maximum Solubility [1] [µM] | IC50* (Ras-GAP interaction) | IC50 (Ras-GAP interaction) [µM] | %Inhibition of Adenylyl Cyclase Activity Ras Dependent [2] [%]
CC[C@H](C)[C@H](NC(=O)[C@H](CC(C)C)NC(=O)[C@H](CCC(N)=O)NC(=O)[C@@H](NC(=O)[C@@H](NC(=O)[C@H](CC(C)C)NC(=O)[C@H](C)NC(=O)[C@@H](N)CO)[C@@H](C)O)[C@@H](C)CC)C(=O)N[C@@H](CCC(N)=O)C(=O)N[C@@H](CC(N)=O)C(=O)O [Ras 17-26] | 600 | no inhibition | – | –
CC[C@H](C)[C@H](NC(=O)[C@H](CC(C)C)NC(=O)[C@H](CCC(N)=O)NC(=O)[C@@H](NC(=O)[C@@H](NC(=O)[C@H](CC(C)C)NC(=O)[C@H](C)NC(=O)[C@@H](N)CO)[C@@H](C)O)[C@@H](C)CC)C(=O)N[C@@H](CCC(N)=O)C(=O)N[C@@H](CC(N)=O)C(=O)N[C@@H](Cc1c[nH]cn1)C(=O)N[C@@H](Cc1ccccc1)C(=O)N[C@H](C(=O)N[C@@H](CC(=O)O)C(=O)N[C@@H](CCC(=O)O)C(=O)N[C@@H](Cc1ccc(O)cc1)C(=O)N[C@@H](CC(=O)O)C(=O)N1CCC[C@H]1C(=O)N[C@H](C(=O)N[C@H](C(=O)N[C@@H](CCC(=O)O)C(=O)N[C@@H](CC(=O)O)C(=O)N[C@@H](CO)C(=O)N[C@@H](Cc1ccc(O)cc1)C(=O)N[C@@H](CCCNC(=N)N)C(=O)N[C@@H](CCCCN)C(=O)N[C@@H](CCC(N)=O)C(=O)N[C@H](C(=O)O)C(C)C)[C@@H](C)CC)[C@@H](C)O)C(C)C [Ras 17-44] | 200 | – | 2.4 | –
CC[C@H](C)[C@H](NC(=O)[C@H](CC(C)C)NC(=O)[C@H](CCC(N)=O)NC(=O)[C@@H](NC(=O)[C@@H](NC(=O)[C@@H](N)CC(C)C)[C@@H](C)O)[C@@H](C)CC)C(=O)N[C@@H](CCC(N)=O)C(=O)N[C@H](CC(N)=O)C(=O)N[C@@H](Cc1c[nH]cn1)C(=O)N[C@@H](Cc1ccccc1)C(=O)N[C@H](C(=O)N[C@@H](CC(=O)O)C(=O)N[C@@H](CCC(=O)O)C(=O)N[C@@H](Cc1ccc(O)cc1)C(=O)O)C(C)C [Ras 19-32(D-Asn)] (H-LTIQLIQ[dN]HFVDEY-OH) | 12 | – | 0.2 | –
N[C@@H](CC(=O)O)C(=O)N[C@@H](CCC(=O)O)C(=O)N[C@@H](Cc1ccc(O)cc1)C(=O)O [Ras 30-32] (H-Asp-Glu-Tyr-OH) | 800 | no inhibition | – | –
EELTIQLIQNHFVDEYD-NH2 [Ras 19-33(3)] | 225 | – | 50 | –
EYDPTIEDSYRKQ [Ras 31-43] | 446 | no inhibition | – | –
GQEEYSAMRDQYMRTGE [Ras 60-76, reference compound] | – | – | – | 6 ± 1
IQLIQNHFVDEY [Ras 21-32] | 120 | – | 70 | –
LTIQIQNHFVDE [Ras 19-31(1)] | >1000 | – | 36 | –
LTIQLIQNHFVDE [Ras 19-31] | >1000 | – | 48 | –
LTIQLIQNHFVDEY [Ras 19-32] | 48 | – | 0.4 | –
LTIQLIQNHFVDEYD [Ras 19-33] | 23 | – | 1.4 | –
MRTRVVSGFVFLRLIGPAILNPR [GAP 888-910(Gly903)] | 800 | – | – | –
NHFVDEY [Ras 26-32] | 800 | – | 350 | –
SALTIQLIQNHFV [Ras 17-29] | 20 | no inhibition | – | –
TIQLIQNHFVDEY [Ras 20-32] | 110 | – | 18 | –
